ChEMBL document CHEMBL1201862, “PubChem BioAssay data set” (2004)
Calls of active or inactive are those of the source.

Key:
Streptokinase A = biological target: T1, Streptokinase A (Streptococcus pyogenes serotype M1, UniProt P10520); assay: viability-normalized secreted streptokinase activity reduction – plasminogen activation absorbance, OD405, dose response (AID 1914); type: functional, Streptococcus pyogenes M1 GAS;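 note: secreted streptokinase activity via plasminogen activation per viability signal from cell pellet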
T1 sequence (P10520 whole entry): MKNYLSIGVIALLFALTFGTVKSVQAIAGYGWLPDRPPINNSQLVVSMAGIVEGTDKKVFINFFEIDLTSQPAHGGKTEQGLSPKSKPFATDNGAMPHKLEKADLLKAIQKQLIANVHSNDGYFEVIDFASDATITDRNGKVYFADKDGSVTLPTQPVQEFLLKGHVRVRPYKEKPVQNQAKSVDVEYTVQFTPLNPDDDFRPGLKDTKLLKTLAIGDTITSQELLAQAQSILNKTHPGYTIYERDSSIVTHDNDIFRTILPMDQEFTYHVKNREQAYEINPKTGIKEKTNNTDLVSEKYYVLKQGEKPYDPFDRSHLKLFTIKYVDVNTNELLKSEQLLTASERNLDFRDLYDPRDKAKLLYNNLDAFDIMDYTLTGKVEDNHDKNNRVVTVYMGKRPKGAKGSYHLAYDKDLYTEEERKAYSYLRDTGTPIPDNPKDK

[1] = test system: Streptococcus sp. 'group A'; assay: Streptococcus pyogenes SK(-)GAS viability under kanamycin – luminescence, BacTiterGlo, confirmation, counter-screen for streptokinase expression inhibitor project, dose response (AID 1900); type: functional, organism-based
Streptococcus = assay: GAS UMAA2166 growth inhibition – luminescence, BacTiterGlo, counter-screen for streptokinase expression inhibitor project, dose response (AID 1915); type: functional, organism-based;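 note: potency for reduction of bacterial viability or growth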
Cytochrome P450 2C9 = Cytochrome P450 2C9 (Homo sapiens, UniProt P11712)
Sequence of Cytochrome P450 2C9 (P11712 whole entry): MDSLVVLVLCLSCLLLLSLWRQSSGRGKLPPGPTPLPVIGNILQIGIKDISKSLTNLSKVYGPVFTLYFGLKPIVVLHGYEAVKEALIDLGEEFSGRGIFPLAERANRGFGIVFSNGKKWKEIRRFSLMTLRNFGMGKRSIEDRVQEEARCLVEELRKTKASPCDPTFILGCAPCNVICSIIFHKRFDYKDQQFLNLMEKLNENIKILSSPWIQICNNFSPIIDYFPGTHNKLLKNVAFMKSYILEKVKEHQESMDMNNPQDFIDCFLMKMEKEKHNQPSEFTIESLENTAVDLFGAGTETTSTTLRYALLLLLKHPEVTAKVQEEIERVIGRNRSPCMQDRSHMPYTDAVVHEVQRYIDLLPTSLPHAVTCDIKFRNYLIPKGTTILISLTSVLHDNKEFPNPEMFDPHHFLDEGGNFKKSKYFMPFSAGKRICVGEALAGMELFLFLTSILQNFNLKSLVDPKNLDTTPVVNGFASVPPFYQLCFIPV

Cytochrome P450 1A2 = biological target: T2, Cytochrome P450 1A2 (Homo sapiens, UniProt P05177);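 note: PubChem cytochrome P450 panel assay, CYP1A2 panel member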
T2 sequence (P05177 whole entry): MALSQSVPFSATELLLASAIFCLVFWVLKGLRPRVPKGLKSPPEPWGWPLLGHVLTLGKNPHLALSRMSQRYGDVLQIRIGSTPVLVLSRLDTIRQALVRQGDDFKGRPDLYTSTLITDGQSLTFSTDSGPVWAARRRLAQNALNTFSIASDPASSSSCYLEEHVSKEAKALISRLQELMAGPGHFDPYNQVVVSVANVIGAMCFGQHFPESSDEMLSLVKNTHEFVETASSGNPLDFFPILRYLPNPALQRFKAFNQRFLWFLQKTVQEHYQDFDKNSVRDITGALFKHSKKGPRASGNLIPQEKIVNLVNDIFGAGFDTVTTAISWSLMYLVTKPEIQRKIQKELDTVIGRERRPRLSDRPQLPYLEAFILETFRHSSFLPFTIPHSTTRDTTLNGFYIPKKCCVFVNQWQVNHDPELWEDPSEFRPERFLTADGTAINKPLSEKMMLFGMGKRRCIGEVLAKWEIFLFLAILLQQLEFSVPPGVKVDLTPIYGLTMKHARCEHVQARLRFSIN

Cytochrome P450 3A4 = Cytochrome P450 3A4 (Homo sapiens, UniProt P08684);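 note: CYP3A4 tested as one member of a cytochrome P450 panel screen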
Sequence of Cytochrome P450 3A4 (P08684 whole entry): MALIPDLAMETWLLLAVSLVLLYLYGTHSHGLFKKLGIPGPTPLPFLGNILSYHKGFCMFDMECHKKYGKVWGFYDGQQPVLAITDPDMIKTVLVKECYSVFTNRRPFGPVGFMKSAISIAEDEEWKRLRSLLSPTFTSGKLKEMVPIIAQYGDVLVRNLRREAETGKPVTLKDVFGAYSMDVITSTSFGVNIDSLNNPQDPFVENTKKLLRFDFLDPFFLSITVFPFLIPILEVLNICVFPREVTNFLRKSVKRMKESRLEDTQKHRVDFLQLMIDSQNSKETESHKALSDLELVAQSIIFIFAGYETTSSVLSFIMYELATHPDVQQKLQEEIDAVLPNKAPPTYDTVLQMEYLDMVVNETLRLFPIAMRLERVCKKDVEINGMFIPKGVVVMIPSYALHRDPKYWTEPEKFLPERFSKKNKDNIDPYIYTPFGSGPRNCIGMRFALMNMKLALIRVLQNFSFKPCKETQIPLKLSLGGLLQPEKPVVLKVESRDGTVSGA

[2] = biological target: T3, Heat shock factor protein 1 (Mus musculus, UniProt P38532); assay: decrease of HSF1-responsive luciferase luminescence – cell-based, NIH3T3, dose retest, confirmation (AID 2382); type: functional;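 note: NIH3T3 fibroblasts with HSF1-driven luciferase reporter stressed by proteasome inhibitor MG132; luminescence from HSF1-driven luciferase expression after 8 hours of MG132 stress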
T3 sequence (P38532 whole entry): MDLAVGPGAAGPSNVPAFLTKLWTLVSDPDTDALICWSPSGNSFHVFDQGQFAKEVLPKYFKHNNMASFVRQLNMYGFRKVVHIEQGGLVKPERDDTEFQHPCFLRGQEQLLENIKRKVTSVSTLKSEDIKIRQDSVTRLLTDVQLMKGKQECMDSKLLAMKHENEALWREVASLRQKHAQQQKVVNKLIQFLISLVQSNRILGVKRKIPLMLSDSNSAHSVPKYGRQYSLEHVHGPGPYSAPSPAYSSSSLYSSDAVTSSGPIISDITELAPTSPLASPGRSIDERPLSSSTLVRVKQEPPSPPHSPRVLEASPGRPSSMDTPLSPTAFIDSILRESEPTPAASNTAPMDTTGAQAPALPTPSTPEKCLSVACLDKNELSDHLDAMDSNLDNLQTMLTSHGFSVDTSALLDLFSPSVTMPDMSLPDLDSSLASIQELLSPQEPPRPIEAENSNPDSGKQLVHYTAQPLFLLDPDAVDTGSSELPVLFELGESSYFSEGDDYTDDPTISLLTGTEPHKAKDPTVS

[3] = biological target: T4, Rac GTPase-activating protein 1 (Homo sapiens, UniProt Q9H0H5); assay: blockers of MgcRacGAP-driven Rac1 GTP hydrolysis – biochemical, ADP Hunter fluorescence, primary and confirmatory, confirmation (AID 624330); type: functional
T4 sequence (Q9H0H5 whole entry): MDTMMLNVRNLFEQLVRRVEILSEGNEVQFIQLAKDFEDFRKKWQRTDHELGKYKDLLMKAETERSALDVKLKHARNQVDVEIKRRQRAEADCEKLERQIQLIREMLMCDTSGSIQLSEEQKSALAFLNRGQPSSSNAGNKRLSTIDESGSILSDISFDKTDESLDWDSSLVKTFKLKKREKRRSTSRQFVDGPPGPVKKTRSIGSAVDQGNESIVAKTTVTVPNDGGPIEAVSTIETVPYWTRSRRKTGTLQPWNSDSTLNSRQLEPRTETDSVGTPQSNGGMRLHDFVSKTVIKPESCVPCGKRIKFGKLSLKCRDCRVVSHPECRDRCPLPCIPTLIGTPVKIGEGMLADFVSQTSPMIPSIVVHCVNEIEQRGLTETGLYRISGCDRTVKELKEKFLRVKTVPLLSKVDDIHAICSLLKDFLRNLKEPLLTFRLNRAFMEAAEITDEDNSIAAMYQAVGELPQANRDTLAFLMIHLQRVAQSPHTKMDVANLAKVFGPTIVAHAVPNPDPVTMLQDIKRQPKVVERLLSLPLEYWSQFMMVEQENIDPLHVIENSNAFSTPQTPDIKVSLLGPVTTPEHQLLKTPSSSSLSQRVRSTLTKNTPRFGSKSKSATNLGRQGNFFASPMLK

[4] = biological target: T5, Corticotropin-releasing factor receptor 2/Corticotropin-releasing factor-binding protein (Homo sapiens, UniProt P24387+Q13324); assay: activators of CRF receptor 2 with binding protein – uHTS hits, confirmation (AID 602473); type: functional; settings: read-out: EC50_Mean
T5 sequence (Q13324 whole entry): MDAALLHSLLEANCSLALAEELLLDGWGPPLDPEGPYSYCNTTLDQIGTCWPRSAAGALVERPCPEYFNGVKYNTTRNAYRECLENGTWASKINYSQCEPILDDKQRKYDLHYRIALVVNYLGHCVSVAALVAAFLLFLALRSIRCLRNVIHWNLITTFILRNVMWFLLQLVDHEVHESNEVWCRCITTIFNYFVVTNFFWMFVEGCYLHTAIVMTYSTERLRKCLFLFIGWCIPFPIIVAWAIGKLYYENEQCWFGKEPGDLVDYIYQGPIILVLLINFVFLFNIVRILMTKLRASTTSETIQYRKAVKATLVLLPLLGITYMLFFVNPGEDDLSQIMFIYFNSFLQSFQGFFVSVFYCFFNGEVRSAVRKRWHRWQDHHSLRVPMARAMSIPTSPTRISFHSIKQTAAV
T5 sequence (P24387 whole entry): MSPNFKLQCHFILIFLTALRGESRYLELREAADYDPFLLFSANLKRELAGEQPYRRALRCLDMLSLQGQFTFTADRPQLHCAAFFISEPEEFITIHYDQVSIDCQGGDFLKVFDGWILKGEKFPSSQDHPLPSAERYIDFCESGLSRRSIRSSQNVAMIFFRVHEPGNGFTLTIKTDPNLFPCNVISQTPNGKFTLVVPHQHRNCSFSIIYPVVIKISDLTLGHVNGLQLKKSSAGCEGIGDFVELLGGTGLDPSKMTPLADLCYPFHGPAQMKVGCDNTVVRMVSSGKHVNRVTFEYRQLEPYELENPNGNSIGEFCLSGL

[5] = Luminescence Cell-Based Dose Retest to Confirm Inhibitors of Cancer Stem Cells. [Related pubchem assays (depositor defined):AID2717, AID2721]; type: functional; settings: Homo sapiens
Cytochrome P450 2C19 = Cytochrome P450 2C19 (Homo sapiens, UniProt P33261); assay: Cytochrome panel assay with activity outcomes. Panel member name: p450-cyp2c19 Compounds with AC50 equal or less than 10 uM are considered active; type: functional; settings: read-out: AC50
Sequence of Cytochrome P450 2C19 (P33261 whole entry): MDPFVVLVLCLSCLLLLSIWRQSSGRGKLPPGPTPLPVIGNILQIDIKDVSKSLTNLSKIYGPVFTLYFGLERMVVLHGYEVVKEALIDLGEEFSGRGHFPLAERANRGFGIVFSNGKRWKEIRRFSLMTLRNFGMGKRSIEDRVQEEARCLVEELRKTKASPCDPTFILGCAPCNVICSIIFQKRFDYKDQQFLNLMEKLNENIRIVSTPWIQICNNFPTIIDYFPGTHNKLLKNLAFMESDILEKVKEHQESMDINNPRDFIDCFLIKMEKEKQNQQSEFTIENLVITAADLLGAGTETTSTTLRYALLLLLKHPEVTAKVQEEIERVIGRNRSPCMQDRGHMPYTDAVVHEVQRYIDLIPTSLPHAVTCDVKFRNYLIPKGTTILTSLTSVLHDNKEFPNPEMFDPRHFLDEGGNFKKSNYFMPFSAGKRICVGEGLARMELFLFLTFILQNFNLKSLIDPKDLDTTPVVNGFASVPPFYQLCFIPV

## N#Cc1c(NC(=S)NC(=O)C2CCCC2)sc2c1CCCCC2
Streptokinase A
  EC50: 2.9 µM (active)
[1]
  EC50: 8.59 µM (active)
Streptococcus
  EC50: 27.1 µM (active)

## COc1cccc(Cn2c(=O)c(-c3cccs3)nc3cnc(OCc4ccccc4)nc32)c1
Cytochrome P450 2C9
  AC50: 0.631 µM (inconclusive)
Cytochrome P450 1A2
  AC50: 1.58 µM (inconclusive)
Cytochrome P450 3A4
  AC50: 7.94 µM (inconclusive)

## COc1cnc(-c2ccccn2)nc1Oc1ccccc1
Streptokinase A
  EC50: > 150 µM (not active)
[1]
  EC50: > 150 µM (not active)
Streptococcus
  EC50: > 150 µM (not active)

## COc1ccc(CNc2nc3c(c(=O)[nH]c(=O)n3C)n2Cc2ccccc2C)cc1
[2]
  EC50: > 195 µM (not active)

## c1ccc(OCc2nc3c4c(ncn3n2)-c2ccccc2CC42CCCC2)cc1
Streptokinase A
  EC50: 22 µM (active)
[1]
  EC50: 114 µM (active)
Streptococcus
  EC50: > 150 µM (not active)

## COc1ccc(-n2c(C)cc(-c3csc(NC(=O)c4ccc(S(=O)(=O)N(C)C)cc4)n3)c2C)cc1
[2]
  EC50: > 195 µM (not active)

## Cc1nn(-c2ccccc2)c(Cl)c1C1C(C#N)=C(N)OC2=C1C(=O)CC(C)(C)C2 (stereo not drawn)
Streptokinase A
  EC50: > 150 µM (not active)
[1]
  EC50: 1.4 µM (active)
Streptococcus
  EC50: 16.1 µM (active)

## COc1ccc(-c2c(C#N)c(N)nc3sc(C(=O)c4ccccc4)c(N)c23)cc1
Streptokinase A
  EC50: > 150 µM (not active)
[1]
  EC50: 5.29 µM (active)
Streptococcus
  EC50: > 150 µM (not active)

## O=C(CNCC1CCCO1)Nc1ccc(N2CCCCCC2)cc1 (stereo not drawn)
[3]
  IC50: 62.7 µM (active)

## O=C(CCN1CCCCCC1)Nc1ccc2c(c1)OCCO2
[3]
  IC50: 338 µM (active)

## Nc1cc(C(F)(F)F)ccc1N1CCOCC1
[3]
  IC50: 29.9 µM (active)

## CCn1c(-c2ccccc2)c[nH]c1=S
Streptokinase A
  EC50: > 150 µM (not active)

## Cc1ccc(-c2cc(-c3ccccc3Cl)[nH]n2)c(O)c1
Streptokinase A
  EC50: 20.1 µM (inconclusive)
[1]
  EC50: 6.71 µM (active)
Streptococcus
  EC50: 13.6 µM (active)

## COc1cc(C)ccc1NC(=O)Cc1csc(NC(=O)Nc2ccccc2OC)n1
Streptokinase A
  EC50: 104 µM (active)
[1]
  EC50: 15.4 µM (active)
Streptococcus
  EC50: > 150 µM (not active)

## COc1ccc(CNC(=O)CN(C)Cc2ccc(C(C)(C)C)cc2)cc1
[3]
  IC50: 106 µM (active)

## CCC(C(=O)NCC1CCCO1)n1nc(C)c2sc3ccccc3c2c1=O (stereo not drawn)
Streptokinase A
  EC50: > 150 µM (not active)
[1]
  EC50: > 150 µM (not active)
Streptococcus
  EC50: > 150 µM (not active)

## CCCn1cc(CN2CCC(n3nccc3NC(=O)c3ccccc3)CC2)c(C)n1
Streptokinase A
  EC50: > 150 µM (not active)
[1]
  EC50: > 150 µM (not active)
Streptococcus
  EC50: > 150 µM (not active)

## c1ccc(-c2nc(C3CCCCC3)c3sccc3n2)cc1
Streptokinase A
  EC50: 23.9 µM (active)
[1]
  EC50: 4.26 µM (active)
Streptococcus
  EC50: 15.5 µM (active)

## Cc1cc(C(C)(C)C)cc(C)c1COC(=O)c1cccnc1
Streptokinase A
  EC50: > 150 µM (not active)
[1]
  EC50: 15.8 µM (active)
Streptococcus
  EC50: > 150 µM (not active)

## O=C(NCc1ccc(OC(F)(F)F)cc1)c1cccc2c1C(=O)c1ccc(N3CCC(Cc4ccccc4)CC3)cc1S2(=O)=O
[4]
  EC50: 8.45 µM (active)

## O=S(=O)(c1ccc2ccccc2c1)N1CCN(c2ccc(O)cc2)CC1
[5]
  AC50: 6.17 µM (active)
[3]
  IC50: 35.8 µM (active)

## O=[N+]([O-])c1ccc(-c2ccc(/C=N/Nc3nc(N4CCCC4)nc(N4CCCC4)n3)o2)cc1
[4]
  EC50: 2.8 µM (active)

## Cc1ccsc1/C=C1\Oc2cc(O)ccc2C1=O
[4]
  EC50: 11.1 µM (active)

## C/C=C(\C)C(=O)OC1CC(C)(C)C[C@H]2C3=CC[C@@H]4[C@@]5(C)CCC(O[C@@H]6O[C@@H](C(=O)O)[C@@H](O)C(O[C@@H]7OC[C@H](O)[C@@H](O)[C@@H]7O[C@@H]7OC(CO)C(O)[C@@H](O)[C@@H]7O)C6O[C@@H]6OC(CO)C(O)C(O)C6O)[C@@](C)(CO)[C@@H]5CC[C@]4(C)[C@]3(C)CC(O)[C@@]12CO (stereo partly drawn)
[4]
  EC50: 11.4 µM (active)

## COc1cc(C=C2NC(=O)NC2=O)ccc1O
[3]
  IC50: 19 µM (active)

## O=C(CNC(=O)C1COc2ccccc2O1)N/N=C/c1ccc(O)cc1O (stereo not drawn)
[5]
  AC50: 6.23 µM (active)
[3]
  IC50: 71.7 µM (active)

## Cn1c(=O)n(C)c2cc(/C=N/NC(=O)c3ccc(Cl)cc3Cl)ccc21
Cytochrome P450 2C9
  AC50: 39.8 µM (inconclusive)
Cytochrome P450 1A2
  AC50: 14.1 µM (inconclusive)
Cytochrome P450 3A4
  AC50: 0.0398 µM (inconclusive)

## COc1cc(OC)c(OC)cc1/C=N/N(C)c1ccccc1
[3]
  IC50: 43.7 µM (active)

## C/C(=N\NC(=O)C1CC1c1ccccc1)c1cccs1 (stereo not drawn)
Cytochrome P450 2C9
  AC50: 11.2 µM (inconclusive)
Cytochrome P450 2C19
  AC50: 2.24 µM (inconclusive)
Cytochrome P450 1A2
  AC50: 15.8 µM (inconclusive)
Cytochrome P450 3A4
  AC50: 8.91 µM (inconclusive)

## CO[C@@]1(NC(=O)Cc2cccs2)C(=O)N2C(C(=O)O)=C(COC(N)=O)CS[C@@H]21 [CEFOXITIN SODIUM]
Streptokinase A
  EC50: > 150 µM (not active)
[1]
  EC50: 5.58 µM (active)
Streptococcus
  EC50: 16.2 µM (active)
